# Like-named read-outs stand apart in the source and are kept apart here.
# Columns and labels:
# [1] = system: Bacillus subtilis ATCC 6 633; assay: MIC, liquid medium dilution; format: cell-based
# Method: (§1) The method used was a dilution of a liquid medium where a series of tubes received the same quantity of a sterile nutritive media and increasing doses of the test compounds were placed therein. Then each tube was seeded with a bacterial strain and was incubated for 24 or 48 hours at 37° C. in an oven. The increasing inhibition was determined by transillumination to determine the minimum inhibiting concentration (MIC in μg/ml) and the results are reported in the following Tables.
# Enterobacter cloacae 681 = assay: MIC, liquid medium dilution; format: cell-based
# Method: as §1
# [2] = system: Escherichia Coli Exp. TO26 B6; assay: MIC, liquid medium dilution; format: cell-based
# Method: as §1
# [3] = system: Escherichia Coli Resistant Gentamicine, Tobramycine R 55 123 D; assay: MIC, liquid medium dilution; format: cell-based
# Method: as §1
# [4] = system: Escherichia Coli Resistant Tetracycline ATCC 11 303; assay: MIC, liquid medium dilution; format: cell-based
# Method: as §1
# [5] = system: Escherichia Coli Sensitive Tetracycline ATCC 9 637; assay: MIC, liquid medium dilution; format: cell-based
# Method: as §1
# [6] = system: Klebsiella pneumoniae 2 536 Resistant Gentamicine; assay: MIC, liquid medium dilution; format: cell-based
# Method: as §1
# [7] = system: Klebsiella pneumoniae Exp. 52 145; assay: MIC, liquid medium dilution; format: cell-based
# Method: as §1
# [8] = system: Proteus mirabilis (indol-) A 235; assay: MIC, liquid medium dilution; format: cell-based
# Method: as §1
# [9] = system: Proteus vulgaris (indol+) A 232; assay: MIC, liquid medium dilution; format: cell-based
# Method: as §1
# Providencia Du 48 = assay: MIC, liquid medium dilution; format: cell-based
# Method: as §1
# [10] = system: Salmonella typhimurium 420; assay: MIC, liquid medium dilution; format: cell-based; details: Salmonella enterica
# Method: as §1
# [11] = system: Serratia Resistant Gentamicine 2 532; assay: MIC, liquid medium dilution; format: cell-based
# Method: as §1
# [12] = system: Staphylococcus aureus ATCC 6 538 Pen-Sensitive; assay: MIC, liquid medium dilution; format: cell-based
# Method: as §1
# [13] = system: Staphylococcus aureus UC 1 128 Pen-Resistant; assay: MIC, liquid medium dilution; format: cell-based
# Method: as §1
# [14] = system: Staphylococcus aureus exp. n° 54 146; assay: MIC, liquid medium dilution; format: cell-based
# Method: as §1
# [15] = system: Streptococcus faecalis 5 432; assay: MIC, liquid medium dilution; format: cell-based
# Method: as §1
# [16] = system: Streptococcus faecalis 99 F 74; assay: MIC, liquid medium dilution; format: cell-based; details: Enterococcus faecalis
# Method: as §1
# [17] = system: Streptococcus pyogenes A 561; assay: MIC, liquid medium dilution; format: cell-based
# Method: as §1
# [18] = system: Escherichia coli (T) O26 B6; assay: Experimental infection with Escherichia coli (T) O26 B6 in mice; format: in vivo; details: s. c.
# Method: The products of Example 6 and 10 were studied for their activity against an experimental infection of Escherichia coli in groups of 10 male mice weighing about 22 g. The mice received an intraperitoneal injection of 0.5 ml of a 24 hour old culture in a nutritive media of Escherichia coli (T) O26 B6 of the Pasteur Institute diluted 1/5.5 with distilled water. The test product was administered subcutaneously or orally 1 hour and 5 and 24 hours after the infection and the number of dead was determined during 8 days.
# [19] = system: Klebsiella pneumonia 52,145; assay: Experimental infection with Klebsiella pneumonia in mice (C); format: in vivo; details: subcutaneous
# Method: The activity of the products of Examples 4 and 6 was studied on an experimental infection of Klebsiella pneumonia in mice. Groups of 10 male mice weighing 21 g were infected by an intraperitoneal injection of 0.5 ml of a culture in nutrive media of Klebsiella pneumonia 52,145 diluted by 1/1000 with distilled water. The products were administered subcutaneously 30 minutes, 4, 8, 24 and 32 hours after the injection and the number of dead mice was determined during 10th days.
# [20] = Enterobacter cloacae, 681, 48 h
# [21] = Enterococcus faecalis, 5432, 24 h
# [22] = Enterococcus faecalis, 5432, 48 h
smiles,measurement,setting,value
"CO/N=C(\C(=O)NC1C(=O)N2C(C(=O)O)=C(CSC(C)=O)CSC12)c1csc(N)n1 (stereo not drawn) [Example 6, 3-acetylthiomethyl-7-[{2-(2-amino-4-thiazolyl)-2-methoxyiminoacetyl}amino]-ceph-3-eme-4-carboxylic acid]",MIC,"[1]; ATCC6, 24 h",1 µg/mL
same,MIC,"[1]; ATCC6, 48 h",2 µg/mL
same,MIC,"Enterobacter cloacae 681; Enterobacter cloacae, 681, 24 h, read-out: MIC",10 µg/mL
same,MIC,Enterobacter cloacae 681; [20],20 µg/mL
same,MIC,[2]; 24 h,0.4 µg/mL
same,MIC,[2]; 48 h,0.4 µg/mL
same,MIC,"[3]; 24 h, read-out: MIC",0.6 µg/mL
same,MIC,[3]; 48 h,0.6 µg/mL
same,MIC,"[4]; ATCC11, 24 h, read-out: MIC",0.1 µg/mL
same,MIC,"[4]; ATCC11, 48 h, read-out: MIC",0.1 µg/mL
same,MIC,"[5]; ATCC9, 24 h, read-out: MIC",0.6 µg/mL
same,MIC,"[5]; ATCC9, 48 h",0.6 µg/mL
same,MIC,[6]; 24 h,1 µg/mL
same,MIC,[6]; 48 h,2 µg/mL
same,MIC,"[7]; EXP.52145, 24 h, read-out: MIC",0.1 µg/mL
same,MIC,"[7]; EXP.52145, 48 h, read-out: MIC",0.1 µg/mL
same,MIC,[8]; 24 h,0.05 µg/mL
same,MIC,"[8]; 48 h, read-out: MIC",0.1 µg/mL
same,MIC,[9]; 24 h,5 µg/mL
same,MIC,"[9]; 48 h, read-out: MIC",10 µg/mL
same,MIC,"Providencia Du 48; DU48, 24 h, read-out: MIC",10 µg/mL
same,MIC,"Providencia Du 48; DU48, 48 h, read-out: MIC",10 µg/mL
same,MIC,[10]; 24 h,0.4 µg/mL
same,MIC,[10]; 48 h,0.4 µg/mL
same,MIC,[11]; 24 h,1 µg/mL
same,MIC,[11]; 48 h,2 µg/mL
same,MIC,"[12]; ATCC6, 24 h",2 µg/mL
same,MIC,"[12]; ATCC6, 48 h",2 µg/mL
same,MIC,"[13]; UC1, 24 h",5 µg/mL
same,MIC,"[13]; UC1, 48 h",5 µg/mL
same,MIC,[14]; 24 h,2 µg/mL
same,MIC,[14]; 48 h,2 µg/mL
same,MIC,[15]; [21],5 µg/mL
same,MIC,[15]; [22],5 µg/mL
same,MIC,"[16]; 99F74, 24 h",5 µg/mL
same,MIC,"[16]; 99F74, 48 h",> 40 µg/mL
same,MIC,"[17]; A561, 24 h, read-out: MIC",≤ 0.02 µg/mL
same,MIC,"[17]; A561, 48 h, read-out: MIC",≤ 0.02 µg/mL
same,Mice surviving on the 8th day,"[18]; 3 × 0,1 mg",5/10
same,Mortality after 5 H 30 (number of dead of 10),"[18]; 3 × 0,1 mg",1
same,Mortality after 21 H 30 (number of dead of 10),"[18]; 3 × 0,1 mg",1
same,Mortality after 24 H (number of dead of 10),"[18]; 3 × 0,1 mg",1
same,Mortality after 47 H (number of dead of 10),"[18]; 3 × 0,1 mg",2
same,Mice surviving on the 8th day,"[18]; 3 × 0,2 mg",7/10
same,Mortality after 21 H 30 (number of dead of 10),"[18]; 3 × 0,2 mg",1
same,Mortality after 47 H (number of dead of 10),"[18]; 3 × 0,2 mg",1
same,Mortality after 70 H (number of dead of 10),"[18]; 3 × 0,2 mg",1
same,Mice surviving on the 8th day,"[18]; 3 × 0,3 mg",10/10
same,Mice surviving on the 8th day,"[18]; 3 × 0,05 mg",4/10
same,Mortality after 5 J (number of dead of 10),"[18]; 3 × 0,05 mg",1
same,Mortality after 21 H 30 (number of dead of 10),"[18]; 3 × 0,05 mg",4
same,Mortality after 54 H (number of dead of 10),"[18]; 3 × 0,05 mg",1
same,Mice alive on the 10th day,"[19]; 5 × 0,5 mg",10/10
same,Mice alive on the 10th day,"[19]; 5 × 0,25 mg",10/10
same,Mice alive on the 10th day,[19]; 5 × 1 mg,10/10
"CO/N=C(/C(=O)NC1C(=O)N2C(C(=O)O)=C(CSC(C)=O)CSC12)c1csc(N)n1 (stereo not drawn) [Example 17, 3-acetylthiomethyl-7-[{2-(2-amino-4-thiazolyl)-2-methoxyiminoacetyl}amino]-ceph-3-eme-4-carboxylic acid]",MIC,"[1]; ATCC6, 24 h",5 µg/mL
same,MIC,"[1]; ATCC6, 48 h",20 µg/mL
same,MIC,"Enterobacter cloacae 681; Enterobacter cloacae, 681, 24 h",40 µg/mL
same,MIC,Enterobacter cloacae 681; [20],100 µg/mL
same,MIC,[2]; 24 h,20 µg/mL
same,MIC,[2]; 48 h,40 µg/mL
same,MIC,[3]; 24 h,40 µg/mL
same,MIC,[3]; 48 h,40 µg/mL
same,MIC,"[4]; ATCC11, 24 h",5 µg/mL
same,MIC,"[4]; ATCC11, 48 h",5 µg/mL
same,MIC,"[5]; ATCC9, 24 h",40 µg/mL
same,MIC,"[5]; ATCC9, 48 h",40 µg/mL
same,MIC,[6]; 24 h,> 100 µg/mL
same,MIC,[6]; 48 h,> 100 µg/mL
same,MIC,"[7]; EXP.52145, 24 h",40 µg/mL
same,MIC,"[7]; EXP.52145, 48 h",40 µg/mL
same,MIC,[8]; 24 h,5 µg/mL
same,MIC,[8]; 48 h,40 µg/mL
same,MIC,[9]; 24 h,> 100 µg/mL
same,MIC,[9]; 48 h,> 100 µg/mL
same,MIC,"Providencia Du 48; DU48, 24 h",> 100 µg/mL
same,MIC,"Providencia Du 48; DU48, 48 h",> 100 µg/mL
same,MIC,[10]; 24 h,40 µg/mL
same,MIC,[10]; 48 h,40 µg/mL
same,MIC,[11]; 24 h,> 100 µg/mL
same,MIC,[11]; 48 h,> 100 µg/mL
same,MIC,"[12]; ATCC6, 24 h",20 µg/mL
same,MIC,"[12]; ATCC6, 48 h",20 µg/mL
same,MIC,"[13]; UC1, 24 h",40 µg/mL
same,MIC,"[13]; UC1, 48 h",100 µg/mL
same,MIC,[14]; 24 h,40 µg/mL
same,MIC,[14]; 48 h,40 µg/mL
same,MIC,[15]; [21],> 100 µg/mL
same,MIC,[15]; [22],> 100 µg/mL
same,MIC,"[16]; 99F74, 24 h",> 100 µg/mL
same,MIC,"[16]; 99F74, 48 h",> 100 µg/mL
same,MIC,"[17]; A561, 24 h",0.2 µg/mL
same,MIC,"[17]; A561, 48 h",0.2 µg/mL
